Source: ChEMBL document CHEMBL1150473, “Schotten-Baumann acylation of N-debenzoyltaxol; an efficient route to N-acyl taxol analogues and their biological evaluation” (1994)

Columns and labels:
[1] = tested on: B16; assay: Cytotoxic ratio of inhibition of B16 melanoma cell proliferation after 40 hour incubation relative to taxol; assay type: functional, Mus musculus
[2] = target: Tubulin alpha chain (Sus scrofa) (UniProt P02550); assay: Evaluated for ability to initiate the polymerization of tubulin in the microtubule assembly assay expressed as ED50(compound) / ED50(taxol); assay type: functional
Tubulin alpha chain (Sus scrofa), sequence (P02550 whole entry, looked up): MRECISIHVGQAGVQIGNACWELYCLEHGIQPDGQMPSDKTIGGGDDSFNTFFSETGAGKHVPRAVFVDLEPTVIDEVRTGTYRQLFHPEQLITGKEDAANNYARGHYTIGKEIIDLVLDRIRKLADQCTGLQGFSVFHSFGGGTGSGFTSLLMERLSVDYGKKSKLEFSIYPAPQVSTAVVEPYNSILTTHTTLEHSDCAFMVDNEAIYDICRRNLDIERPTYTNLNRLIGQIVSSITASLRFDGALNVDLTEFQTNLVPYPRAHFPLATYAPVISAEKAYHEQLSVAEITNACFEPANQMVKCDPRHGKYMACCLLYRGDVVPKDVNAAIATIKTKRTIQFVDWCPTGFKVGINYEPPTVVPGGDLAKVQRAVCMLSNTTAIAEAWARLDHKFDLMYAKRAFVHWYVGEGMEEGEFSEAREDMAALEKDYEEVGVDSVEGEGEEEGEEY

ED50 ratio [2] | SMILES | ED50 ratio [1]
0.55 | CC(=O)O[C@@]12CO[C@@H]1C[C@H](O)[C@@]1(C)C(=O)[C@H](O)C3=C(C)[C@@H](OC(=O)[C@H](O)[C@@H](NC(=O)OC(C)(C)C)c4ccccc4)C[C@@](O)([C@@H](OC(=O)c4ccccc4)[C@H]21)C3(C)C.O.O.O [DOCETAXEL] | 0.23
1 | CC(=O)O[C@H]1C(=O)[C@@]2(C)[C@H]([C@H](OC(=O)c3ccccc3)[C@]3(O)C[C@H](OC(=O)[C@H](O)[C@@H](NC(=O)c4ccccc4)c4ccccc4)C(C)=C1C3(C)C)[C@]1(OC(C)=O)CO[C@@H]1C[C@@H]2O [PACLITAXEL] | 1
0.74 | CC(=O)O[C@H]1C(=O)[C@@]2(C)[C@H]([C@H](OC(=O)c3ccccc3)[C@]3(O)C[C@H](OC(=O)[C@H](O)[C@@H](NC(=O)CC(C)(C)C)c4ccccc4)C(C)=C1C3(C)C)[C@]1(OC(C)=O)CO[C@@H]1C[C@@H]2O | 3.13
1.18 | CC(=O)O[C@H]1C(=O)[C@@]2(C)[C@H]([C@H](OC(=O)c3ccccc3)[C@]3(O)C[C@H](OC(=O)[C@H](O)[C@@H](NC(=O)CC(C)C)c4ccccc4)C(C)=C1C3(C)C)[C@]1(OC(C)=O)CO[C@@H]1C[C@@H]2O | 2.65
2.61 | CC(=O)O[C@H]1C(=O)[C@@]2(C)[C@H]([C@H](OC(=O)c3ccccc3)[C@]3(O)C[C@H](OC(=O)[C@H](O)[C@@H](NC(=O)C(C)(C)C)c4ccccc4)C(C)=C1C3(C)C)[C@]1(OC(C)=O)CO[C@@H]1C[C@@H]2O | 22.4
4.6 | CC(=O)O[C@H]1C(=O)[C@@]2(C)[C@H]([C@H](OC(=O)c3ccccc3)[C@]3(O)C[C@H](OC(=O)[C@H](O)[C@@H](NC(=O)c4c(F)c(F)c(N=[N+]=[N-])c(F)c4F)c4ccccc4)C(C)=C1C3(C)C)[C@]1(OC(C)=O)CO[C@@H]1C[C@@H]2O | 14.8
